From US5441935A, “Growth factor receptors” (Imperial Cancer Research Technology Ltd., priority 1987, dated 1995)
Read-outs that look alike come from different tables or passages of the source. Non-standard residues stand in square brackets, D forms with d. Residues, ends and D or L forms follow the SMILES beside them. No end group written: not given here. Tyr(3-I) = N[C@@H](Cc1ccc(O)c(I)c1)C(=O)O

Experiments:
Mr 75000-85000 protein = target: T1, Mr 75000-85000 protein (Mus musculus, UniProt P21729); assay: ^125 I-GRP affinity labelling (EGS cross-linking) of the Mr 75000-85000 protein in Swiss 3T3 cells; type: binding
T1 construct: endogenous in cells; host or cells: Swiss 3T3 cells (intact, confluent and quiescent)
T1 sequence (P21729 whole entry): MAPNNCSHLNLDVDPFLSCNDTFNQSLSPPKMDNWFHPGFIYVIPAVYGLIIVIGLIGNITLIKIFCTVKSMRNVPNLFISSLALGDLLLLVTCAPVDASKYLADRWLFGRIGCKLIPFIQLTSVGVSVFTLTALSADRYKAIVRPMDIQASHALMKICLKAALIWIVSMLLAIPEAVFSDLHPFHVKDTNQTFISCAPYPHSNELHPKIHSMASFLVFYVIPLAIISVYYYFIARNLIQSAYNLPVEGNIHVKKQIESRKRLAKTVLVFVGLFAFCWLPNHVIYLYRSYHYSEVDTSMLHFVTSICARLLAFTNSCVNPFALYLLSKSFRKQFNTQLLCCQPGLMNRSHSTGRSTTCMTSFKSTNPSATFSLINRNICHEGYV
Method: After 2.5 h the cells were washed three times at 15° C. with phosphate buffered saline (PBS) and then incubated for 15 min at 15° C. in 1 ml of binding medium, pH 7.4 in the presence of the appropriate cross-linking agent at the concentration indicated. The cross-linking agents (EGS, DSS, DSP and BSCOES) were dissolved in dimethyl sulphoxide immediately prior to use and were added to medium to give a final concentration of dimethylsulphoxide of 1-2%. The cultures were rapidly rinsed twice with PBS at 4° C. and solubilized in 0.1 ml of 2× sample buffer 0.2M Tris-HCl, pH 6.8, 10% (w/v) glycerol, 6% sodium dodecyl sulphate (SDS) (w/v) 4% β-mercaptoethanol (v/v) and 2 mM ethylenediaminetetraacetic acid. Samples were immediately heated at 100° C. for 3- 5 min and analysed by either one or two-dimensional gel electrophoresis.
Slab gel electrophoresis was performed using 7.5% acrylamide in the separating gel and 5% in the stacking gel, and 0.1% SDS (31). After electrophoresis gels were stained, destained and dried down onto paper for autoradiography with Fuji X-ray film (Fuji Photo Film Co. Ltd. Japan). Dried gels were exposed to film for 4-8 days. Two-dimensional gel electrophoresis was performed as described by O'Farrell (32) using isoelectric focusing in the 1st dimension and SDS-polyacrylamide gel electrophoresis (SDS-PAGE) (8% polyacrylamide) in the second dimension. The samples prepared for isoelectric focusing containing 1.4% LKB ampholytes, pH 5-7, plus 0.6% LKD ampholytes, pH,3.5-10, 6M urea, and 2% Nonidet P-40. The Mr 75000-85000 band from autoradiograms was scanned using a Joyce-Loebl double beam densitometer and the areas under specific peaks were measured with a Hewlett-Packard digitizer.
FIG. 4. […] Values are expressed as percentage of the specific binding obtained in the absence of antagonists. […] Each point represents the mean of 3 determinations. […] Specific binding (B) is expressed in pmol/10^6 cells and is shown in a double-reciprocal plot. Each point represents the mean of duplicate determinations. […] After 2 hours, the cultures were washed twice with binding medium then incubated in 1 ml containing 6 mM ethylene glycol bis (succinimidylsuccinate) (EGS) at pH 7.4 for 15 minutes at 15° C. The cultures were then washed twice with cold phosphate-buffered saline and solubilised in 0.1 ml of 2× sample buffer, then immediately heated at 100° C. for 5 minutes and electrophoresed on a 10% polyacrylamide gel.
After the incubation period cultures were treated with […] EGS as described in Materials and Methods. Each value is expressed as a percentage of the level of the Mr 75000-85000 protein obtained with no additions (-). Other experimental details are as described in Materials and Methods.

Swiss 3T3 cells [1] = assay: DNA synthesis by [^3 H]thymidine incorporation in Swiss 3T3 cells (GRP-induced mitogenesis); type: cell-based, mouse; settings: for Ability to inhibit mitogenesis stimulated by GRP (relative potency): substance P antagonists tested at 50 μM
Method: Cell culture procedure (33), assays of DNA synthesis by ^3 H-thymidine incorporation (34) and ^125 I-GRP binding to intact cells (13) were performed as described previously.
FIG. 3. Inhibition of GRP-induced DNA synthesis by [DPro^2 ]spantide (A) and [DPhe^5 ]spantide (D). […] After 40 hours DNA synthesis was estimated by [^3 H]thymidine incorporation into acid-precipitable material. […] Each point represents the mean of duplicate determinations. […] Values are expressed as a percentage of [^3 H]thymidine incorporation obtained in the absence of antagonists (100%=8.6×10^5 cpm per dish). Each point represents the mean of 4 determinations.

Swiss 3T3 cells [2] = settings: reference (13); cited from earlier work
GRP receptor = target: T2, GRP receptor (Mus musculus, UniProt P21729); settings: reference (13); cited from earlier work
T2 construct: endogenous in cells; host or cells: Swiss 3T3 cells (intact, confluent and quiescent)
T2 sequence (P21729 whole entry): as above

[3] = ^125 I-GRP 0.5 nM, 15° C., 2.5 h, EGS, each addition at its own concentration

Compound | Mr 75000-85000 protein % of control (Mr 75000-85000 protein; [3]) | further results
CC(C)C[C@H](NC(=O)[C@H](CC(C)C)NC(=O)[C@@H](Cc1c[nH]c2ccccc12)NC(=O)[C@H](Cc1ccccc1)NC(=O)[C@@H](Cc1c[nH]c2ccccc12)NC(=O)[C@H](CCC(N)=O)NC(=O)[C@H](CCC(N)=O)NC(=O)[C@@H]1CCCN1C(=O)[C@H](CCCCN)NC(=O)[C@H]1CCCN1C(=O)[C@H](N)CCCNC(=N)N)C(N)=O [Antagonist A, D-Arg-D-Pro-Lys-Pro-Gln-Gln-D-Trp-Phe-D-Trp-Leu-Leu-NH2] (H-[dR][dP]KPQQ[dW]F[dW]LL-NH2) | 9.7 % of control | –
CC(C)C[C@H](NC(=O)[C@H](CC(C)C)NC(=O)[C@@H](Cc1c[nH]c2ccccc12)NC(=O)[C@H](Cc1ccccc1)NC(=O)[C@@H](Cc1c[nH]c2ccccc12)NC(=O)[C@H](CCC(N)=O)NC(=O)[C@H](CCC(N)=O)NC(=O)[C@@H]1CCCN1C(=O)[C@H](CCCCN)NC(=O)[C@@H]1CCCN1C(=O)[C@H](N)CCCNC(=N)N)C(N)=O [B, DArgProLysProGlnGlnDTrpPheDTrpLeuLeuNH2] (H-[dR]PKPQQ[dW]F[dW]LL-NH2) | – | Antagonist activity against GRP-stimulated mitogenesis (Swiss 3T3 cells [1]; even at 100 μM): no antagonist activity; Ability to inhibit mitogenesis stimulated by GRP (relative potency) (Swiss 3T3 cells [1]): less potent than either A or D
CSCC[C@H](NC(=O)[C@H](CC(C)C)NC(=O)[C@H](Cc1cnc[nH]1)NC(=O)CNC(=O)[C@@H](NC(=O)[C@H](C)NC(=O)[C@H](Cc1c[nH]c2ccccc12)NC(=O)[C@H](CCC(N)=O)NC(=O)[C@H](CC(N)=O)NC(=O)CNC(=O)[C@H](CC(C)C)NC(=O)[C@H](CCCN=C(N)N)NC(=O)[C@H](CCC(N)=O)NC(=O)[C@@H]1CCC(=O)N1)C(C)C)C(N)=O [Bombesin] | – | Mr 75000-85000 protein % of control (Mr 75000-85000 protein): 0.5
C[C@H](N)C(=O)NCC(=O)N[C@H]1CSSC[C@@H](C(=O)O)NC(=O)[C@H](CO)NC(=O)[C@H]([C@@H](C)O)NC(=O)[C@H](Cc2ccccc2)NC(=O)[C@H]([C@@H](C)O)NC(=O)[C@H](CCCCN)NC(=O)[C@H](Cc2c[nH]c3ccccc23)NC(=O)[C@H](Cc2ccccc2)NC(=O)[C@H](Cc2ccccc2)NC(=O)[C@H](CC(N)=O)NC(=O)[C@H](CCCCN)NC1=O [Somatostatin] | 97 % of control | –
CSCC[C@H](NC(=O)[C@H](CC(C)C)NC(=O)CNC(=O)[C@H](Cc1ccccc1)NC(=O)[C@H](Cc1ccccc1)NC(=O)[C@H](CCC(N)=O)NC(=O)[C@H](CCC(N)=O)NC(=O)[C@@H]1CCCN1C(=O)[C@H](CCCCN)NC(=O)[C@@H]1CCCN1C(=O)[C@@H](N)CCCNC(=N)N)C(N)=O [Substance P] | 91 % of control | –
NC(=O)CC[C@@H]1NC(=O)[C@H](Cc2ccccc2)NC(=O)[C@H](Cc2ccc(O)cc2)NC(=O)[C@@H](N)CSSC[C@@H](C(=O)N2CCC[C@H]2C(=O)N[C@@H](CCCN=C(N)N)C(=O)NCC(N)=O)NC(=O)[C@H](CC(N)=O)NC1=O [Vasopressin] | 94 % of control | –
CSCC[C@H](NC(=O)[C@H](CC(C)C)NC(=O)[C@H](Cc1c[nH]cn1)NC(=O)CNC(=O)[C@@H](NC(=O)[C@H](C)NC(=O)[C@H](Cc1c[nH]c2ccccc12)NC(=O)[C@H](Cc1c[nH]cn1)NC(=O)[C@H](CC(N)=O)NC(=O)CNC(=O)[C@H](CCCNC(=N)N)NC(=O)[C@@H]1CCCN1C(=O)[C@H](Cc1ccc(O)c(I)c1)NC(=O)[C@H](CCSC)NC(=O)[C@H](CCCCN)NC(=O)[C@H](C)NC(=O)[C@H](CC(C)C)NC(=O)[C@@H](NC(=O)[C@@H](NC(=O)CNC(=O)CNC(=O)CNC(=O)[C@@H](NC(=O)[C@H](CO)NC(=O)[C@@H](NC(=O)[C@@H]1CCCN1C(=O)[C@H](C)N)C(C)C)C(C)C)[C@@H](C)O)C(C)C)C(C)C)C(N)=O [^125 I-GRP] (H-APVSVGGGTVLAKM[Tyr(3-I)]PRGNHWAVGHLM-NH2; N-terminus and C-terminus assumed) | – | Kd (Mr 75000-85000 protein; 15° C., 2.5 h, EGS 6 mM, read-out: Kd from double-reciprocal plot of cross-linking of ^125 I-GRP to the Mr 75000-85000 band): 1 nM
EGF: epidermal growth factor | 94 % of control | –
GRP (1-16): the 1-16 amino acid (amino-terminal) fragment of GRP (VPLPAGGGTVLTKMYP; Gastrin-releasing peptide; UniProt P07492 24-39, looked up, fragment) | 93 % of control | Stimulation of DNA synthesis (Swiss 3T3 cells [2]): nor stimulates DNA synthesis; Inhibition of ^125 I-GRP binding (GRP receptor): neither inhibits ^125 I-GRP binding
HArgGlyGlnDTrpPheGlyAsp(OtBu)2 [J] | – | Ability to inhibit mitogenesis stimulated by GRP (relative potency) (Swiss 3T3 cells [1]): less potent than either A or D

Further lines, with some results ahead:

Mr 75000-85000 protein % of control (Mr 75000-85000 protein; [3]) | Compound | further results
0.4 % of control | GRP (14-27): the 14-27 amino acid fragment of GRP (MYPRGNHWAVGHLM; ends and bridges not checked; UniProt P07492 37-50, looked up, fragment) | –
90 % of control | Insulin: mitogen for Swiss 3T3 cells | –
2 % of control | Litorin | –
99 % of control | PDGF | –
94 % of control | Substance K: neuropeptide | –
